Source: ChEMBL document CHEMBL5149996, “Structure-Based Optimization and Discovery of M3258, a Specific Inhibitor of the Immunoproteasome Subunit LMP7 (β5i)” (J Med Chem, 2021)
pIC50: −log10 of the molar value. Active and inactive are the calls of the source. No cut-off for these calls is given here.

Assays:
[1] = biological target: T1, Proteasome subunit beta type-8 (Homo sapiens, UniProt P28062); assay: Inhibition of human 20S immunoproteasome beta-5i subunit using Suc-LLVY-AMC as substrate preincubated for 2 hrs followed by substrate addition and measured after 1 hr by fluorescence intensity assay
T1 sequence (P28062 whole entry): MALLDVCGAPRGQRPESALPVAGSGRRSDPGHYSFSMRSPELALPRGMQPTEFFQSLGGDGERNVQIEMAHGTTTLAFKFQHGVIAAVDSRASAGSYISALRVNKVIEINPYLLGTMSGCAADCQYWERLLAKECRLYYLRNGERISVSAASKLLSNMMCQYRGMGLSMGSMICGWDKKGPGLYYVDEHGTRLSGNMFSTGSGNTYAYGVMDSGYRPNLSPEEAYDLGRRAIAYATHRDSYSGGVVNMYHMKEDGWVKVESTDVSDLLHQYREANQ

[2] = Oral bioavailability in mouse at 10 mg/kg; format: ADME, organism-based; conditions: in vivo
[3] = system: 20S immunoproteasome beta-5i subunit; assay: Selectivity ratio of IC50 for cytotoxicity against Wistar Han rat hepatocytes to IC50 for inhibition of 20S immunoproteasome beta-5i subunit in human PBMC; format: toxicity; conditions: read-out: Ratio IC50
U-266 [4] = assay: In vivo inhibition of LMP7 activity in tumor lysates of H2d Rag2 mouse xenografted with human U266B1 cells at 0.3 mg/kg, po administered once daily using (Ac-ANW)2R110 as substrate measured at 1 to 6 hrs post-last drug dosage by fluorescence intensity assay; format: functional, organism-based; conditions: Neoplasm, time 1-6 hrs
[5] = biological target: T1, Proteasome subunit beta type-8; assay: Inhibition of 20S immunoproteasome beta-5i subunit in human PBMC using Ac-ANW-luciferin substrate preincubated for 2 hrs followed by substrate addition and measured after 30 mins by luminometric analysis; format: cell-based
[6] = system: 20S immunoproteasome beta-5i subunit; assay: Selectivity ratio of IC50 for cytotoxicity against human primary hepatocytes to IC50 for inhibition of 20S immunoproteasome beta-5i subunit in human PBMC; format: toxicity; conditions: read-out: Ratio IC50
[7] = system: 20S immunoproteasome beta-5i subunit; assay: Selectivity ratio of IC50 for cytotoxicity against human HepG2 cells to IC50 for inhibition of 20S immunoproteasome beta-5i subunit in human PBMC; format: toxicity, cell-based; conditions: read-out: Ratio IC50
[8] = Distribution coefficient, log D of the compound; format: physicochemical; conditions: octanol/water
U-266 [9] = assay: In vivo inhibition of LMP7 activity in tumor lysates of H2d Rag2 mouse xenografted with human U266B1 cells at 0.3 mg/kg, po administered as single dose using (Ac-ANW)2R110 as substrate measured after 1 to 6 hrs by fluorescence intensity assay; format: functional, organism-based; conditions: Neoplasm, time 1-6 hrs
[10] = Clearance in human hepatocytes measured per million of cells; format: ADME, cell-based, Hepatocyte; conditions: read-out: CLH
[11] = Clearance in mouse hepatocytes measured per million of cells; format: ADME, cell-based, Hepatocyte; conditions: read-out: CLH
[12] = Toxicity in H2d Rag2 mouse xenografted with human U266B1 cells assessed as change in body weight at 0.3 to 1 mg/kg, po administered once daily and measured for 21 days; format: organism-based, U-266; conditions: in vivo, 504 h, dose 0.3-1 mg/kg, time 21 day
[13] = Cytotoxicity against human HepG2 cells assessed as depletion of ATP content incubated for 48 to 72 hrs by CellTiter-Glo luminescent assay; format: toxicity, cell-based

Compound `O=C(N[C@@H](Cc1coc2ccccc12)B(O)O)[C@@H]1C[C@H]2CC[C@@H]1O2` has a pIC50 [1] of 8.44, a bioavailability [2] of 35% and a selectivity ratio [3] of 10000. For the same compound, the inhibition (U-266 [4]) was “Active”, the pIC50 [5] was 8.47 and the selectivity ratio [6] was 10000. The selectivity ratio [7] was 10000, the logD [8] was 1.1 and the inhibition (U-266 [9]) was “Active”. For the same compound, the hepatocyte CLint [10] was 6.2 µL/min/1e6 cells, the hepatocyte CLint [11] was 15 µL/min/1e6 cells and the Activity [12] was “Non-Toxic”. For the same compound, the pIC50 [13] was 4.32.
